Test results published in US8080529B2, “Macrolides with anti-inflammatory activity” (Glaxo Group Limited, priority 2005, dated 2011).
Where two headings read alike, the source gives them in different places.

Key:
TNF-α [1] = assay: Inhibition of TNF-α production by stimulated human peripheral blood leukocytes in vitro; type: cell-based; settings: Homo sapiens, Leukocyte, read-out: Percentage of inhibition of TNF-α production
Procedure, shortened: (§1)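 Sandwich ELISA of supernatant cytokines; % inhibition = (1 − sample/stimulated untreated control)×100. Dextran-isolated human PBL were pretreated 2 h with 10 or 50 μM compound, then challenged overnight with LPS (2 μg/mL), PMA (1 μg/mL) or zymosan (120 μg/mL).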

IL-1α = assay: Inhibition of IL-1 production by stimulated human peripheral blood leukocytes in vitro; type: cell-based; settings: Homo sapiens, Leukocyte, read-out: Percentage of inhibition of IL-1α production
IL-6 = assay: Inhibition of IL-6 production by stimulated human peripheral blood leukocytes in vitro; type: cell-based; settings: Homo sapiens, Leukocyte, read-out: Percentage of inhibition of IL-6 production
Procedure, shortened: as §1

IL-8 = assay: Inhibition of IL-8 production by stimulated human peripheral blood leukocytes in vitro; type: cell-based; settings: Homo sapiens, Leukocyte, read-out: Percentage of inhibition of IL-8 production
Procedure, shortened: as §1

[2] = tested on: human peripheral blood mononuclear cells (PBMC); assay: Effects on human T-cell proliferation in vitro (3H-thymidine incorporation); type: cell-based; settings: Homo sapiens, PBMC, read-out: Percentage of inhibition of proliferation of stimulated PBMC
Procedure, shortened: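 Proliferation of human peripheral blood mononuclear cells (PBMC) was assessed in the presence of test compounds. During the final 18 h of culture each well received 1 μCi of ^3H-thymidine. Cells were then collected onto a 96-well filter with a multiple cell harvester, and ^3H-thymidine incorporation was counted on a TopCount NXT to give percentage inhibition of proliferation.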

Hep G2 = assay: Cytotoxicity assay (MTT), Hep G2 cell line; type: cell-based; settings: 24 h
Procedure, shortened: (§2)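 Hep G2 and A549 cells were cultured 24 h at 37° C in RPM medium with test compounds at 50 μM and 12.5 μM. MTT was added for 0.5-2 h and formazan read at 490 nm. Growth value calculated as OD490 treated/OD490 nontreated ×100.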

A549 = assay: Cytotoxicity assay (MTT), A549 cell line; type: cell-based; settings: 24 h
Procedure, shortened: as §2

TNF-α [3] = assay: Lipopolysaccharide induced TNF-α production in Balb/cJ mice; type: in vivo; settings: Mus musculus, ip, 1.5 h; 10 mg/kg intraperitoneally, 30 min before LPS; 90 min after LPS; read-out: % inhibition of TNF-α production (plasma)

Row | SMILES | inhibition at 10 µM (TNF-α [1]; LPS-stimulated PBL) | inhibition at 10 µM (TNF-α [1]; PMA-stimulated PBL) | inhibition at 10 µM (TNF-α [1]; zymosan-stimulated PBL) | inhibition at 50 µM (TNF-α [1]; LPS-stimulated PBL) | inhibition at 50 µM (TNF-α [1]; PMA-stimulated PBL) | inhibition at 50 µM (TNF-α [1]; zymosan-stimulated PBL) | inhibition at 10 µM (IL-1α; LPS-stimulated PBL) | inhibition at 10 µM (IL-1α; PMA-stimulated PBL) | inhibition at 10 µM (IL-1α; zymosan-stimulated PBL) | inhibition at 50 µM (IL-1α; LPS-stimulated PBL) | inhibition at 50 µM (IL-1α; PMA-stimulated PBL) | inhibition at 50 µM (IL-1α; zymosan-stimulated PBL) | inhibition at 10 µM (IL-6; LPS-stimulated PBL) | inhibition at 10 µM (IL-6; PMA-stimulated PBL) | inhibition at 10 µM (IL-6; zymosan-stimulated PBL) | inhibition at 50 µM (IL-6; LPS-stimulated PBL) | inhibition at 50 µM (IL-6; PMA-stimulated PBL) | inhibition at 50 µM (IL-6; zymosan-stimulated PBL) | inhibition at 10 µM (IL-8; LPS-stimulated PBL) | inhibition at 10 µM (IL-8; PMA-stimulated PBL) | other results
1 | CC[C@H]1OC(=O)[C@H](C)[C@@H](O[C@H]2C[C@@](C)(OC)[C@@H](OC(=O)CCN(CC)CC)[C@H](C)O2)[C@H](C)[C@@H](O[C@@H]2O[C@H](C)C[C@H](N(C)C)[C@H]2O)[C@](C)(O)C[C@@H](C)CN(C)[C@H](C)[C@@H](O)[C@]1(C)O [Example 48, 4″-O-(3-diethylamino-propionyl)-azithromycin] | 49% | 31% | 82% | 87% | 90% | 97% | 64% | 38% | 85% | 79% | 78% | 92% | 57% | 30% | 73% | 97% | 84% | 97% | 36% | 25% | inhibition at 10 µM (IL-8; zymosan-stimulated PBL): 49%; inhibition at 50 µM (IL-8; LPS-stimulated PBL): 85%; inhibition at 50 µM (IL-8; PMA-stimulated PBL): 83%; inhibition at 50 µM (IL-8; zymosan-stimulated PBL): 90%; inhibition at 10 µM ([2]; PHA): 93%; inhibition at 50 µM ([2]; PHA): 100%; inhibition at 10 µM ([2]; PMA + iono.): 81%; inhibition at 50 µM ([2]; PMA + iono.): 100%; Percentage of inhibition of cell growth (Hep G2; 12.5 μM): 0%; Percentage of inhibition of cell growth (Hep G2; 50 μM): 9%; Percentage of inhibition of cell growth (A549; 12.5 μM): 0%; Percentage of inhibition of cell growth (A549; 50 μM): 0%; inhibition in vivo at 10 mg/kg (TNF-α [3]): 52%
2 | CC[C@H]1OC(=O)[C@H](C)[C@@H](O[C@H]2C[C@@](C)(OC)[C@@H](OC(=O)CCN(CC)CC)[C@H](C)O2)[C@H](C)[C@@H](O[C@@H]2O[C@H](C)C[C@H](N(C)C)[C@H]2O)[C@](C)(O)C[C@@H](C)CN(C)[C@H](C)[C@H]2OC(=O)O[C@@]21C [Example 1, 11,12-Carbonate-11,12-dideoxy-4″-O-(3-diethylamino-propionyl)-azithromycin] | 54% | 0% | 88% | 100% | 94% | 100% | 67% | 0% | 73% | 93% | 84% | 83% | 10% | 0% | 29% | 94% | 96% | 100% | 0% | 0% | inhibition at 10 µM (IL-8; zymosan-stimulated PBL): 29%; inhibition at 50 µM (IL-8; LPS-stimulated PBL): 97%; inhibition at 50 µM (IL-8; PMA-stimulated PBL): 100%; inhibition at 50 µM (IL-8; zymosan-stimulated PBL): 100%; inhibition at 10 µM ([2]; PHA): 95%; inhibition at 50 µM ([2]; PHA): 99%; inhibition at 10 µM ([2]; PMA + iono.): 90%; inhibition at 50 µM ([2]; PMA + iono.): 96%; Percentage of inhibition of cell growth (Hep G2; 12.5 μM): 0%; Percentage of inhibition of cell growth (Hep G2; 50 μM): 15%; Percentage of inhibition of cell growth (A549; 12.5 μM): 0%; Percentage of inhibition of cell growth (A549; 50 μM): 3%; inhibition in vivo at 10 mg/kg (TNF-α [3]): 64%
